Measured values: publication PMC12040169 (PLOS Biology, 2025)

Test: in vitro
Settings: human, hela cells, % viability

Structure (SMILES) | viability at 28.5 h, 10 µM [%] | viability at 28.5 h, 10 µM (bulk resorufin, single well) [%]
CC1(C)C[C@H](NC2CCOCC2)[C@@]2(CCC(=O)N3CCOCC3)CC[C@](C)(O)C[C@@H]12 [CBK289041] | 91.6 | 
CC(C)Nc1nc2ccccc2nc1SCCc1ccncc1 [CBK103670] | 87.8 | 
O=C(NCCN1CCOCC1)C1CCN(Cc2ccccc2O)CC1 [CBK264324] | 101 | 
O=C(O)CCC(=O)N1N=C2C(=Cc3ccc(F)cc3)CCCC2C1c1ccc(F)cc1 (stereo not shown) [CBK296066] | 93 | 
CCOCC1CCCN1C(=O)Nc1ccc2sc(C(=O)N(C)C)cc2c1 (stereo not shown) [CBK306601] | 98.3 | 
COCCN1C(=O)CC2(C1=O)C(=O)N(CC(=O)c1ccccc1)c1ccccc12 (stereo not shown) [CBK075875] | 99 | 
CNC(=O)CN1CCN(c2cc(C#N)ccc2C(F)(F)F)CC1=O [CBK306441] | 93.6 | 
CC(=O)Nc1ccc(N2C(=O)CC(NCCCN3CCOCC3)C2=O)cc1 (stereo not shown) [CBK265236] | 115 | 
O=C(NC1CCN(Cc2c(F)cccc2Cl)CC1)c1cccs1 [CBK057035] | 100 | 
Cc1ccc(C(C)(C)CC(C)NCc2ccc(Cl)cc2)o1 (stereo not shown) [CBK262873] | 95.8 | 
Cc1noc(C)c1S(=O)(=O)n1c(=O)n(Cc2ccc(S(C)(=O)=O)cc2)c2ccccc21 [CBK106536] | 93.4 | 
O=C(O)C(c1c[nH]c2ccccc12)N1CCN(S(=O)(=O)c2ccccc2)CC1 (stereo not shown) [CBK286643] | 83.6 | 
CN1CC(C(=O)N(C)Cc2nc(-c3ccccc3)no2)NC1=O (stereo not shown) [CBK306727] | 108 | 
O=C(Cn1cc(-c2ccc(CN3CCCCC3)cc2)nn1)NCc1ccc(OC(F)F)cc1 [CBK167514] | 96 | 
CC(C)c1ccc(S(=O)(=O)Nc2ccon2)cc1 [CBK044584] | 115 | 
COc1ccccc1CC(=O)NNC(=O)c1ccco1 [CBK262956] | 91.6 | 
O=C(COc1ccc(S(=O)(=O)N2CCc3ccccc32)cc1Cl)NCc1ccco1 [CBK268293] | 102 | 
COCCN(Cc1nnc(-c2cccs2)o1)C(C(=O)N1CCOCC1)c1ccccc1 (stereo not shown) [CBK295190] | 104 | 
COc1cccc(C(=O)Nc2cc(C)c3c(=O)oc4ccccc4c3n2)c1OC [CBK287437] | 106 | 
COc1ccc(NS(=O)(=O)c2ccc(Cl)c(C(=O)Nc3ccccc3C(=O)O)c2)cc1 [CBK263209] | 104 | 
CC(=O)Nc1ccc(S(=O)(=O)N2CCN(c3cc4c(cc3[N+](=O)[O-])n(C)c(=O)n4C)CC2)cc1 [CBK267338] | 91.9 | 

Structure (SMILES) | viability at 28.5 h, 10 µM [%] | viability at 28.5 h, 10 µM (bulk resorufin, single well) [%]
CCn1nc(-c2ccc(Cl)cc2)c2c(=O)n(C)c(=O)[nH]c21 [CBK287845] | 108 | 
CCc1nc2c(OCC=C(C)C)cccn2c1N(C)C(=O)c1cccc(OC)c1 [CBK147448] | 94.3 | 
O=C(c1ccco1)N1CCN(CC(=O)N2c3ccccc3OCC2c2ccccc2)CC1 (stereo not shown) [CBK239722] | 89.9 | 
O=c1[nH]c(=O)c2cc(S(=O)(=O)NC(c3ccccc3)c3ccccc3)ccc2[nH]1 [CBK286375] | 89.4 | 
C(=N/OCc1ccccc1)/c1c[nH]c2ccccc12 [CBK168629] | 79.3 | 
Cc1ccc(NC(=O)c2cc(C(=O)Nc3ccc(C)c(C)c3)cc(N3C(=O)c4ccccc4C3=O)c2)cc1C [CBK261328] | 93.8 | 
CC1SC2(C(=O)Nc3ccccc32)N(c2ccc(F)cc2)C1=O (stereo not shown) [CBK093463] | 96.8 | 
Cc1ccc(C(=O)NCc2ccc(-c3n[nH]cc3C(=O)N(C)Cc3ccccc3)cc2)cc1 [CBK285598] | 100 | 
COC(=O)c1c(NC(=S)NC(=O)c2c(Br)c(C)nn2C)sc2c1CCCCCC2 [CBK267486] | 94.5 | 
COc1ccccc1N1CCN(CCc2nnc(S)n2-c2ccccc2)CC1 [CBK262212] | 102 | 
c1nc(Nc2ccc3[nH]ccc3c2)cc(-c2ccc3c(c2)OCO3)n1 [CBK037761] | 94.4 | 
Cc1ccc(Cl)c(NC(=O)NCCN2CCN(c3ccccc3[N+](=O)[O-])CC2)c1 [CBK267293] | 94.5 | 
Nc1ncc(-c2ccc(O)cc2)nc1N1CCN(CCO)CC1 [CBK063685] | 105 | 
CC(C)N1CC(C(=O)N(C)C)C2(CCc3ccccc3C2O)C1 (stereo not shown) [CBK286305] | 89.1 | 
O=C(NCC1CCCO1)C(=O)Nc1ccccc1F (stereo not shown) [CBK263557] | 90.5 | 
COc1cc(CNc2cc(C(=O)O)ccc2C)cc(Br)c1OC [CBK269679] | 95.3 | 
O=C(Nc1ccccc1)N[C@H]1CO[C@H]2[C@@H]1OC[C@H]2OC(=O)Nc1ccccc1 [CBK289465] | 89.1 | 
CCN(CC)C(=O)/C=C/c1ccc(C(C)C)cc1 [CBK149636] | 93.1 | 
CCCc1cc(C(=O)N2CCCN(Cc3cnn(CC)c3)CC2)[nH]n1 [CBK305293] | 92.3 | 
OCc1ccc(-c2cncc(-c3ccc(O)cc3)n2)cc1 [CBK123792] | 91.4 | 
CS(=O)(=O)NCC(=O)N1CCC2(CCCCOc3ccccc3C(=O)NCCNC2=O)CC1 [CBK292123] | 112 | 

Structure (SMILES) | viability at 28.5 h, 10 µM [%] | viability at 28.5 h, 10 µM (bulk resorufin, single well) [%]
CN(C)CCN(C)c1cncc(-c2cccc(C(F)(F)F)c2)n1 [CBK065584] | 115 | 
CCCC(=O)Nc1sc(C)c(C)c1C(=O)Nc1ccccc1OC [CBK262455] | 104 | 
COc1cc(CCN2CCN(C(C)C)CC2)cc(OC)c1OC [CBK028881C] | 89.8 | 
CC1Cc2ccccc2N1CCNC(=O)Cc1cn2ccsc2n1 (stereo not shown) [CBK306499] | 87.6 | 
Cc1nc(-c2cccnc2)[nH]c(=O)c1CC(=O)N1CCN(C)CC1C (stereo not shown) [CBK304950] | 100 | 
Cc1cccc(Cn2c(=O)c3cnc(-c4ccncc4)nc3n(C)c2=O)c1 [CBK288593] | 82.8 | 
COc1ccc(C(=O)N2CCC3(CCN(CCCCC4NC(=O)NC4=O)C3)C2)cc1OC (stereo not shown) [CBK132169] | 83 | 
CCOC(=O)N1CCC2(CC1)OCc1ccc(-c3ccc(S(C)(=O)=O)nc3)cc1O2 [CBK174780] |  | 92
Oc1cccc(Sc2cc(C(F)(F)F)ccn2)c1 [CBK115273] | 97.7 | 
Cc1ccc2oc(-c3cc(NC(=O)c4nc[nH]n4)ccc3O)nc2c1 [CBK266900] | 101 | 
Cn1c(=O)c2c(ncn2Cc2ccc(C#N)cc2)n(C)c1=O [CBK134217] | 106 | 
Cc1ccc(-c2csc3c(=O)[nH]c(N4CCCC(C(=O)NCC(N)=O)C4)nc23)cc1 (stereo not shown) [CBK215542] | 98.3 | 
CC(=O)Nc1cccc(-c2cncc(-c3ccc(O)cc3)n2)c1 [CBK123795] | 77.8 | 
COc1cccc(NC(=O)N[C@H]2[C@H](O)[C@@H](N3CCOCC3)[C@@H]3OC[C@H]2O3)c1 [CBK288821] | 109 | 
COc1ccc(NS(=O)(=O)c2ccc(Cl)cc2Cl)c(C(=O)NCc2ccccc2)c1 [CBK113943] | 98.4 | 
C[C@]1(CO)[C@H]2Cc3sc(-c4ccccc4)nc3[C@@H](CC(=O)O)[C@]2(C)CC[C@H]1O [CBK289572] | 84.5 | 
COc1cc(/C=N/NC(N)=O)ccc1OC(=O)c1sc2ccccc2c1Cl [CBK262265] | 85 | 
O=C(O)C(Cc1ccccc1)n1cnnn1 (stereo not shown) [CBK021162] | 109 | 
Cc1ncncc1C(=O)N1CCc2sccc2C1c1ccccc1 (stereo not shown) [CBK281386] | 113 | 
